Measured values taken from patent publication US20040259096A1, “Receptor capture assay” (priority 2001, published 2004).

Key:
Ah receptor [1] = conditions: Carver et al., 1994 JBC 269:30109-30112; cited from earlier work
Ah receptor [2] = test: Biotinylated ARNT assay, neutravidin capture, PCR and gel densitometry; assay type: biochemical; conditions: 1 μl of 1 nM beta-naphthoflavone
Procedure: Activation of the Ah receptor with dose was performed in a microfuge tube containing 50 μl of Ah receptor preparation, 1 μl of 200 μg/ml biotinylated ARNT, and 1 μl of 1 nM beta-naphthoflavone and incubated for 1 hr at 30° C. To minimize non-specific interactions, 1-2 μg of salmon sperm DNA was added to the activated complex, along with NaCl to a final concentration of 60 mM. After 10 min at room temperature, varying amounts of nucleic acid-tracer (50-500 fmole) was added, and the reaction allowed to incubate for an additional 10 min at room temperature. The reaction mix (40 μl) was transferred to a neutravidin-coated plate and incubated for 30 min on a Wallac plate shaker at room temperature. The wells were washed five times with Wash Buffer B, soaking wells for 3 min with wash buffer during each cycle, followed by two washes with ultrapure water.
For PCR analysis, 50 μl of PCR reagent was added and the well contents were subjected to 28 cycles of PCR amplification, using GeneAmp PCR System 2700 (Applied Biosystems, Foster City, Calif.). PCR was performed using 50 μl of PCR Master Mix (Promega, Madison, Wis.) diluted to the appropriate concentration with nuclease-free water and 1 μM of each primer was used per PCR reaction. Following the addition of PCR mix, the microtiter strip was sealed with adhesive and placed in the thermocylcer. Samples were initially heated to 95° C. for 5 min to denature the Ah receptor/ARNT complex and free the nucleic acid for PCR analysis then subjected to 28 cycles of 94° C., 30 sec, 52° C., 30 sec, 72° C., 45 sec, followed by 72° C. for 5 min, then cooling to 4° C.
PCR product, 20 μl, was analyzed by 4% agarose gel electrophoresis, with PCR product visualized under UV light by ethidium bromide staining UV light-illuminated gels were photographed using a Polaroid MP 4 Land Camera and Polaroid Type 55 film. Transmission densitometry with film negatives was performed and areas under the peak calculated using arbitrary units.

AhR [3] = target: T1, AhR (Homo sapiens, UniProt P35869); conditions: Van den Berg et al., 1998; cited from earlier work
T1 sequence (P35869 11-848): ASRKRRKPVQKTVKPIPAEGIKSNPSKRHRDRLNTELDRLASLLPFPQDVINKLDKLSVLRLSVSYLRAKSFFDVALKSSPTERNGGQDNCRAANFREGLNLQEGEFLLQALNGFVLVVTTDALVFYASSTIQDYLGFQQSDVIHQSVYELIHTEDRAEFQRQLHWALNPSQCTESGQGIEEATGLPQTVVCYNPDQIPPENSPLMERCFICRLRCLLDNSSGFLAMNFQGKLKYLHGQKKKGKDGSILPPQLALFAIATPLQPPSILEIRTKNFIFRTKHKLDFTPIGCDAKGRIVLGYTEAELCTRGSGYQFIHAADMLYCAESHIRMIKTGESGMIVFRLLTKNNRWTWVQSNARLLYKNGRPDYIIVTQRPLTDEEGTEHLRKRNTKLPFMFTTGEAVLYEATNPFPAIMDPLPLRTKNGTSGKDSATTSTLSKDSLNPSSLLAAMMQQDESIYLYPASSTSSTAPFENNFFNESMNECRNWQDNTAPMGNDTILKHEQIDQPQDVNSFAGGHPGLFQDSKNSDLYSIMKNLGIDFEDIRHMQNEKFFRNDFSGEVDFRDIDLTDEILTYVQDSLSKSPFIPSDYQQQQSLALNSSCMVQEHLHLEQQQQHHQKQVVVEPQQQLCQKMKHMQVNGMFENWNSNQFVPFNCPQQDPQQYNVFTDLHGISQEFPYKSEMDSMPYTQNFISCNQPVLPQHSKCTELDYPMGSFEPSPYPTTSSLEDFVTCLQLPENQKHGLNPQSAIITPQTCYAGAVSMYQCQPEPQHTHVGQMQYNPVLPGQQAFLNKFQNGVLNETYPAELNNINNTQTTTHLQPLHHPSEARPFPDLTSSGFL

AhR [4] = test: Receptor capture assay, real-time PCR, rodent cytosol as source of AhR; assay type: biochemical
Procedure: (§1) A set of calibrators consisting of 5000, 2500, 1250, […], 313, 156, and 78 parts per trillion (ppt or pg/ml) 2,3,7,8-tetrachlorodibenzo-p-dioxin (TCDD) was prepared in methanol. In addition to TCDD a set of calibrators for AhR agonist, beta-naphthoflavone (BNF) was prepared and analyzed in the assay. Separately, 25 ul of 1:50,000 dilution of 10 uM stock nucleic acid-tracer was added per 1 ml of rodent cytosol, which was the source of AhR, and was aliquoted into glass tubes. The standards were diluted 1:20 into 50-100 ul of rodent cytosol, and incubated for 1-2 hr at room temperature to 37° C. Following incubation, 40 to 100 ul of the reaction was transferred to each well of the antibody-coated Capture Strip and incubated on a shaking platform for 30 min to 1 hr at room temperature. The Capture Strips were washed 5 times with Wash Buffer B, and aspirated; optionally soaking wells for 30 sec-5 min with wash buffer during each cycle. Taqman® Universal PCR Master Mix, primers, and Taqman® probe (Applied Biosystems, Calif.) were added, and adhesive cover applied. PCR was performed and analyzed using an ABI PRISM® 7700, using default settings: 50° C., 2 min, 95° C. 10 min, and 40 cycles of [95° C., 15 sec, 60° C., 60 sec]. A threshold cycle (Ct) was determined for each reaction The Ct represents the PCR cycle at which an increase in reporter fluorescence above baseline signal can first be detected.

AhR [5] = target: T2, AhR (Rattus norvegicus, UniProt P41738); test: Receptor capture assay, real-time PCR, AhR derived from rat; assay type: biochemical
T2 construct: The cytosol containing AhR heteromers was stored at; from tissue; host or cells: liver cytosol of Long-Evans rats
T2 sequence (P41738 10-853): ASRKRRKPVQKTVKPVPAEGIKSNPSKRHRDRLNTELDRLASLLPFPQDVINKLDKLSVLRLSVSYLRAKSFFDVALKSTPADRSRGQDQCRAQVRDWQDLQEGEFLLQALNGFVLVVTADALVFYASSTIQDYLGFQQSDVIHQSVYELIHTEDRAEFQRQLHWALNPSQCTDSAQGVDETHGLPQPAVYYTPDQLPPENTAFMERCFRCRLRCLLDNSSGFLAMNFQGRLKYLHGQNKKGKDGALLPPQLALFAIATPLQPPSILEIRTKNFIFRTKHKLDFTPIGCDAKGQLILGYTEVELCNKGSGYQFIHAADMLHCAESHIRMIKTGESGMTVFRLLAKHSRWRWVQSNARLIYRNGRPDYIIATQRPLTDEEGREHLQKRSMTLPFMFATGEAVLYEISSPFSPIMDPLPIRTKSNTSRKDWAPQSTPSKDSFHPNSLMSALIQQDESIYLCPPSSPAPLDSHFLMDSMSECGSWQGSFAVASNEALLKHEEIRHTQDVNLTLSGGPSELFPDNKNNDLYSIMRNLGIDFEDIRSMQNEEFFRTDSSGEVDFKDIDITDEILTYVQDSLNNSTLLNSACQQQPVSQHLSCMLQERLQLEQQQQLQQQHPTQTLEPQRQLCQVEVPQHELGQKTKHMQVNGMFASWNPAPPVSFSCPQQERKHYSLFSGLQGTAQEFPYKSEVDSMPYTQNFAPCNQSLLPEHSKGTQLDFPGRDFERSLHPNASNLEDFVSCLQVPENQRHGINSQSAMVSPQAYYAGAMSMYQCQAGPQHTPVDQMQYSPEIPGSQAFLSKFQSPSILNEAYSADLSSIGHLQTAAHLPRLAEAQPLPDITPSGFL
T2 sequence (P41739 whole entry partner): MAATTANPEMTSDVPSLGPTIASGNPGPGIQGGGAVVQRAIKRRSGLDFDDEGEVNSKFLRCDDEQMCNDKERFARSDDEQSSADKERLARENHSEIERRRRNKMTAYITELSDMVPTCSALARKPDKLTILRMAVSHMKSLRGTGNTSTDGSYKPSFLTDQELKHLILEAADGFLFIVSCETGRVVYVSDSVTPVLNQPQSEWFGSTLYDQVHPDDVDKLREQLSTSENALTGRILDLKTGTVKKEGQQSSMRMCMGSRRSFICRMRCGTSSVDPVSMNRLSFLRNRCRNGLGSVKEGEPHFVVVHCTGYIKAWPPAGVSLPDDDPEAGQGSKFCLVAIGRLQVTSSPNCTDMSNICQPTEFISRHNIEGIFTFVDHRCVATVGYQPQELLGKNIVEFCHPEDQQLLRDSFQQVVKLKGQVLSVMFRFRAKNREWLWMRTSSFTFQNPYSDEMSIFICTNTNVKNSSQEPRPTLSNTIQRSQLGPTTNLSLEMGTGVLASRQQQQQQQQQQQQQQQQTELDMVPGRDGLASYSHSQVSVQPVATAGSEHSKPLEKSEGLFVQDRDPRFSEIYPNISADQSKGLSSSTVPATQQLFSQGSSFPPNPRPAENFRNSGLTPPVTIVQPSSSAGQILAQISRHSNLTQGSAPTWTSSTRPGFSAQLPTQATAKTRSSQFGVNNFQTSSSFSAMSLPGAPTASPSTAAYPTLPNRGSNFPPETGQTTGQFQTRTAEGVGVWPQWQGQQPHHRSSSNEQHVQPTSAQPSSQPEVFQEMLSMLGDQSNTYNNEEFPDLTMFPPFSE
Procedure: as §1, with “10 min, and 40 cycles of [95° C., 15 sec, 60° C., 60 sec].” left out

AhR [6] = test: Receptor capture assay, real-time PCR, rodent cytosol as source of AhR; assay type: biochemical; conditions: TCDD 625 ppt

Row | Compound | affinity for the Ah receptor relative to TCDD (Ah receptor [1]) | area under the peak, PCR product densitometry (Ah receptor [2]; Nucleic Acid-Tracer 63 fmol) [arbitrary units] | area under the peak, PCR product densitometry (Ah receptor [2]; Nucleic Acid-Tracer 125 fmol) [arbitrary units] | area under the peak, PCR product densitometry (Ah receptor [2]; Nucleic Acid-Tracer 250 fmol) [arbitrary units] | area under the peak, PCR product densitometry (Ah receptor [2]; Nucleic Acid-Tracer 500 fmol) [arbitrary units] | toxic equivalency factor (TEF) value (AhR [3]) | Ct Values (AhR [4]; TCDD 78 ppt) | Ct Values (AhR [4]; TCDD 156 ppt) | Ct Values (AhR [4]; TCDD 313 ppt) | Ct Values (AhR [4]; TCDD 1250 ppt) | Ct Values (AhR [4]; TCDD 2500 ppt) | Ct Values (AhR [4]; TCDD 5000 ppt) | slope of dose-response curve (AhR [5]) | EC50 of dose-response curve (AhR [5]; pg of TCDD in the assay) [pg] | Ct Values (AhR [6])
1 | O=c1cc(-c2ccccc2)oc2ccc3ccccc3c12 [BNF, beta-naphthoflavone] | approximately an order of magnitude less affinity for the Ah receptor than TCDD | 459 | 349 | 392 | 392 |  |  |  |  |  |  |  |  |  | 
2 | Clc1cc2c(cc1Cl)Oc1cc(Cl)c(Cl)cc1O2 [TCDD, 2,3,7,8-tetrachlorodibenzo-p-dioxin] |  |  |  |  |  | 1 | 24.52 | 23.81 | 23.16 | 21.3 | 20.5 | 20.28 | −1.208 | 2.8 | 22.23
